Earlier results, collected in patent US10092545B2, “Nutritional supplements for improving female fertility” (Fairhaven Health, LLC, priority 2016, dated 2018).

Columns and labels:
[1] = tested on: obese women with PCOS; conditions: administering for as little as two months
[2] = tested on: females; conditions: females taking myo-inositol
[3] = tested on: oocyte-specific Pdss2-deficient animals; conditions: maternal dietary administration
[4] = tested on: infertile women

For [Cr] [chromium], the “improvement of insulin sensitivity” value [1] is listed as “more than 30%”.

For O[C@H]1[C@H](O)[C@@H](O)[C@H](O)[C@@H](O)[C@H]1O [myo-inositol], the insulin sensitivity [2] is given as “increased” and the serum testosterone level [2] is given as “decreased”.

For COC1=C(OC)C(=O)C(C/C=C(\C)CC/C=C(\C)CC/C=C(\C)CC/C=C(\C)CC/C=C(\C)CC/C=C(\C)CC/C=C(\C)CC/C=C(\C)CC/C=C(\C)CCC=C(C)C)=C(C)C1=O [CoQ10, Coenzyme Q10], the premature ovarian failure [3] is given as “could be prevented”.

For COc1ccc2[nH]cc(CCNC(C)=O)c2c1 [melatonin], the “fertilization and pregnancy rates” value [4] is listed as “elevates”, the intra-follicular melatonin concentrations [4] is listed as “increases” and the intra-follicular oxidative damage [4] is listed as “reduces”.
